1 molecule from ChEMBL document CHEMBL5653610, “The novel phosphodiesterase 10A inhibitor THPP-1 has antipsychotic-like effects in rat and improves cognition in rat and rhesus monkey” (Neuropharmacology, 2013) can be followed below.

The structures appear in SMILES notation. The source made the active and inactive calls. The calls are words filed in the database; no cut-off is given here.

The test deals with Rattus norvegicus. The test is described as follows: Antipsychotic activity in Wistar Hannover rat assessed as increase in recognition at 0.56 mg/kg, ip dosed 30 mins before identical objects by novel object recognition test. The class given is functional, organism-based.

Turning to `COc1cc2c(cc1OC)C(=O)C(CC1CCN(Cc3ccccc3)CC1)C2` (stereo unspecified), the outcome was Active.
